A short description of this experiment: Inhibitory activity against clostridium histolyticum collagenase.

As a reminder, the Ki is the dissociation constant of the complex between target and ligand, obtained from inhibition or displacement. A low value points to tighter binding. As for `CC(C(=O)O)N(Cc1ccccc1[N+](=O)[O-])C(=O)Nc1cccc2ccccc12` (configuration not stated) [2-[3-Naphthalen-1-yl-1-(2-nitro-benzyl)-ureido]-propionic acid], the Ki amounted to 5000 nM.
Turning to `CC(C(=O)O)N(Cc1ccccc1[N+](=O)[O-])S(=O)(=O)C(F)(F)C(F)(F)C(F)(F)C(F)(F)C(F)(F)C(F)(F)C(F)(F)C(F)(F)F` (configuration not stated) [2-[(Heptadecafluorooctane-1-sulfonyl)-(2-nitro-benzyl)-amino]-propionic acid], the affinity corresponds to a Ki of 1700 nM.
As for `CC(C(=O)NO)N(Cc1ccccc1[N+](=O)[O-])S(=O)(=O)C(F)(F)F` (configuration not stated) [N-Hydroxy-2-[(2-nitro-benzyl)-trifluoromethanesulfonyl-amino]-propionamide], the figure is 70 nM; as for `CC(C(=O)NO)N(Cc1ccccc1[N+](=O)[O-])S(=O)(=O)C(F)(F)C(F)(F)C(F)(F)C(F)(F)F` (configuration not stated) [N-Hydroxy-2-[(2-nitro-benzyl)-(nonafluorobutane-1-sulfonyl)-amino]-propionamide], 10 nM; as for `CC(C(=O)NO)N(Cc1ccccc1[N+](=O)[O-])S(=O)(=O)c1ccc(Br)cc1` (configuration not stated) [2-[(4-Bromo-benzenesulfonyl)-(2-nitro-benzyl)-amino]-N-hydroxy-propionamide], 33 nM.
In turn, `CC(C(=O)O)N(Cc1ccccc1[N+](=O)[O-])S(=O)(=O)c1cccc2ccccc12` (configuration not stated) [2-[(Naphthalene-1-sulfonyl)-(2-nitro-benzyl)-amino]-propionic acid] yielded an inhibitory constant (Ki) of 1600 nM. Against the preceding molecule, the Ki is about 48-fold higher.
In turn, `CC(C(=O)O)N(Cc1ccccc1[N+](=O)[O-])S(=O)(=O)c1ccc(I)cc1` (configuration not stated) [2-[(4-Iodo-benzenesulfonyl)-(2-nitro-benzyl)-amino]-propionic acid] registered a Ki of 11000 nM.
On to `CC(=O)c1ccc(S(=O)(=O)N(Cc2ccccc2[N+](=O)[O-])C(C)C(=O)NO)cc1` (configuration not stated) [2-[(4-Acetyl-benzenesulfonyl)-(2-nitro-benzyl)-amino]-N-hydroxy-propionamide], for which the Ki was 10 nM.
Then `CC(=O)c1ccc(S(=O)(=O)N(Cc2ccccc2[N+](=O)[O-])C(C)C(=O)O)cc1` (configuration not stated) [2-[(4-Acetyl-benzenesulfonyl)-(2-nitro-benzyl)-amino]-propionic acid], with 2000 nM.
As for `CC(C(=O)O)N(Cc1ccccc1[N+](=O)[O-])S(=O)(=O)c1ccc([N+](=O)[O-])cc1` (configuration not stated) [2-[(4-Nitro-benzenesulfonyl)-(2-nitro-benzyl)-amino]-propionic acid], the figure is 5000 nM; as for `CC(C(=O)O)N(Cc1ccccc1[N+](=O)[O-])S(=O)(=O)c1ccc(NC(=O)OC(C)(C)C)cc1` (configuration not stated) [2-[(4-tert-Butoxycarbonylamino-benzenesulfonyl)-(2-nitro-benzyl)-amino]-propionic acid], 2600 nM; as for `CC(C(=O)NO)N(Cc1ccccc1[N+](=O)[O-])S(=O)(=O)c1cc(Cl)cc(Cl)c1O` (configuration not stated) [2-[(3,5-Dichloro-2-hydroxy-benzenesulfonyl)-(2-nitro-benzyl)-amino]-N-hydroxy-propionamide], 10 nM.
Then `Cc1ccccc1S(=O)(=O)NC(=O)N(Cc1ccccc1[N+](=O)[O-])C(C)C(=O)NO` (configuration not stated) [N-hydroxy-2-[({[(2-methylphenyl)sulfonyl]amino}carbonyl)(2-nitrobenzyl)amino]propanamide], with 9 nM; and `CC(C(=O)NO)N(Cc1ccccc1[N+](=O)[O-])S(C)(=O)=O` (configuration not stated) [N-Hydroxy-2-[methanesulfonyl-(2-nitro-benzyl)-amino]-propionamide], with 86 nM.
In the case of `CC(C(=O)NO)N(Cc1ccccc1[N+](=O)[O-])S(=O)(=O)C(Cl)(Cl)Cl` (configuration not stated) [N-Hydroxy-2-[(2-nitro-benzyl)-trichloromethanesulfonyl-amino]-propionamide], the Ki is 64 nM.
For `CC(C(=O)NO)N(Cc1ccccc1[N+](=O)[O-])S(=O)(=O)c1ccc(F)cc1` (configuration not stated) [2-[(4-Fluoro-benzenesulfonyl)-(2-nitro-benzyl)-amino]-N-hydroxy-propionamide], the Ki was 30 nM.
Then `CC(C(=O)O)N(Cc1ccccc1[N+](=O)[O-])S(=O)(=O)c1cccs1` (configuration not stated) [2-[(2-Nitro-benzyl)-(thiophene-2-sulfonyl)-amino]-propionic acid], with 2000 nM.

The values are drawn from BindingDB's records for doi:10.1021/jm010087e (The University of Western Australia, 2001).
